Earlier results as cited in patent EP1017675B1, “HIGHLY LIPOPHILIC CAMPTOTHECIN DERIVATIVES” (BIONUMERIK PHARMACEUTICALS, INC., priority 1997, dated 1998).

Conditions: parenterally administered; fraction of the lactone form's potency

In the case of `CC[C@@](O)(C(=O)O)c1cc2n(c(=O)c1CO)Cc1cc3ccccc3nc1-2` [carboxylate species], the “antitumor potency relative to the lactone form” value is given as “one-tenth”.
